How the values were obtained:
[1] = test system: DU-145 lines (human prostate cancer cells); assay: Anti-proliferative activity, WST1 colorimetric test, DU145 cells; assay type: cell-based; settings: 96 hours treatment, up to 10 μM, read-out: IC50 on the cell proliferation of the DU-145 lines
Experimental: (§1) ii) Characterization of Anti-Proliferative Activity:
(§2) By way of example, the effect of a treatment by the compounds of the examples described previously on two lines of human Mia-Paca2 and DU145 cells will be studied. The cell lines DU145 (human prostate cancer cells) and Mia-PaCa2 (human pancreatic cancer cells) were acquired from the American Tissue Culture Collection (Rockville, Md., USA). The cells placed in 80 μl of Dulbecco's Modified Eagle medium (Gibco-Brl, Cergy-Pontoise, France) completed with 10% foetal calf serum inactivated by heating (Gibco-Brl, Cergy-Pontoise, France), 50,000 units/l of penicillin and 50 mg/l streptomycin (Gibco-Brl, Cergy-Pontoise, France), and 2 mM of glutamine (Gibco-Brl, Cergy-Pontoise, France) were seeded on a 96-well plate on day 0. The cells were treated on day 1 for 96 hours at increasing concentrations of each of the compounds to be tested up to 10 μM. At the end of the of this period, quantification of the cell proliferation is evaluated by a colorimetric test based on the cleavage of the tetrazolium salt WST1 by the mitochondrial dehydrogenases in the viable cells leading to the formation of formazan (Boehringer Mannheim, Meylan, France). These tests are carried out in duplicate with 8 determinations per concentration tested. For each compound to be tested, the values included in the linear part of the sigmoid were retained for linear regression analysis and used in order to estimate the inhibitory concentration IC50. The products are solubilized in dimethylsulphoxide (DMSO) at to 10^−2M and finally used in culture with 0.1% DMSO.

[2] = test system: Mia-Paca2 lines (human pancreatic cancer cells); assay: Anti-proliferative activity, WST1 colorimetric test, Mia-Paca2 cells; assay type: cell-based; settings: MIA PaCa-2, 96 hours treatment, up to 10 μM, read-out: IC50 on the cell proliferation of the Mia-Paca2 lines
Experimental: as §1, §2

[3] = biological target: T1, purified recombinant enzyme Cdc25-C (MBP-Cdc25C) (Homo sapiens, UniProt P30307); assay: Measurement of the phosphatase activity of the purified recombinant enzyme Cdc25C (OMFP dephosphorylation, fluorescence); assay type: biochemical; settings: OMFP 500 μM, 4 hours at 30° C.
T1 construct: made in house
T1 sequence (P30307 1-473): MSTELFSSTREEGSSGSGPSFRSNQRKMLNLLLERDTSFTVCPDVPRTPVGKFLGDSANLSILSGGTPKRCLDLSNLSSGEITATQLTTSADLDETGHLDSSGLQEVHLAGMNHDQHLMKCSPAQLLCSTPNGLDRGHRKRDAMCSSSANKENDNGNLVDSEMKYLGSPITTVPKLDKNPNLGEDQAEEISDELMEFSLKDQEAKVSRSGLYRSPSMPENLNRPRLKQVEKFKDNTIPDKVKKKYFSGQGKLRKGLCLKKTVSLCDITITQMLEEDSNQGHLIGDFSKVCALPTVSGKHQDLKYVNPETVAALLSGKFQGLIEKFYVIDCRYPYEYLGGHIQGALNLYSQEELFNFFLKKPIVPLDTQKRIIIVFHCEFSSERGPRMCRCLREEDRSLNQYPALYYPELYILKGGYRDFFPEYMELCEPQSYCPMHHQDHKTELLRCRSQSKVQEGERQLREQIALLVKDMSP
Experimental: i) Measurement of the Phosphatase Activity of the Purified Recombinant Enzyme Cdc25C
The phosphatase activity of the protein MBP-Cdc25C is evaluated by the dephosphorylation of 3-O-methylfluorescein-phosphate (OMFP) to 3-O-methylfluorescein (OMF) with a determination of the fluorescence at 475 nm of the reaction product. This test makes it possible to identify inhibitors of the recombinant enzyme cdc25. The preparation of the fusion protein MBP-Cdc25C is described in the Patent Application PCT WO 01/44467.
The reaction is carried out in 384-well plate format at a final volume of 50 μl. The protein MBP-Cdc25C (prepared as described above) is preserved in the following elution buffer: 20 mM Tris-HCl pH 7.4; 250 mM NaCl; 1 mM EDTA; 1 mM of dithiothreitol (DTT); 10 mM maltose. It is diluted to a concentration of 60 μM in the following reaction buffer: 50 mM Tris-HCl pH 8.2; 50 mM NaCl; 1 mM DTT; 20% glycerol. Measurement of the background noise is carried out with the buffer without the addition of the enzyme. The products are tested at decreasing concentrations starting from 40 μM. The reaction is initiated by the addition of an OMFP solution at 500 μM final (prepared extemporaneously from a 12.5 mM stock solution in 100% DMSO (Sigma #M2629)). After 4 hours at 30° C. in a single-use 384-well plate, the fluorescence measured at OD 475 nm is read using a Victor^2 plate reader (EGG-Wallac). The determination of the concentration inhibiting the enzyme reaction by 50% is calculated from three independent experiments. Only the values contained in the linear part of the sigmoid are retained for linear regression analysis.

melting point	IC50 [1]	IC50 [2]	IC50 [3]	SMILES
173 to 174 °C	≤ 10 µM	≤ 10 µM	≤ 1 µM	CN(CCCNC1=CC(=O)c2sc(C(=O)N3CCN(C(=O)c4ccco4)CC3)nc2C1=O)CCCNC1=CC(=O)c2sc(C(=O)N3CCN(C(=O)c4ccco4)CC3)nc2C1=O [Example 37, 5.5′-[(methylimino)bis(propane-3,1-diylimino)]bis(2-{[4-(2-furoyl)piperazin-1-yl]carbonyl}-1,3-benzothiazole-4,7-dione)]
199 to 200 °C	≤ 10 µM	≤ 10 µM	≤ 5 µM	CN(CCCNC1=CC(=O)c2nc(-c3cccc(Br)c3)oc2C1=O)CCCNC1=CC(=O)c2nc(-c3cccc(Br)c3)oc2C1=O [Example 11, 6.6′-[(methylimino)bis(propane-3,1-diylimino)]-bis[2-(3-bromophenyl)-1,3-benzoxazole-4,7-dione]]
262 to 263 °C	≤ 10 µM	≤ 10 µM	≤ 1 µM	CN(CCCNC1=CC(=O)c2sc(C(=O)Nc3ccc(F)cc3)nc2C1=O)CCCNC1=CC(=O)c2sc(C(=O)Nc3ccc(F)cc3)nc2C1=O [Example 32, 5.5′-[(methylimino)bis(propane-3,1-diylimino)]bis[N-(4-fluorophenyl)-4,7-dioxo-4,7-dihydro-1,3-benzothiazole-2-carboxamide]]
